“Also recorded” adds a separate entry of the source.
What was measured:
[1] = type: in vitro ADME, mouse; conditions: plasma and liver microsomes; converted to parent JON-11 instantly
Method: (§1) Metabolic stability analysis was performed on a Bruker Avance Ultra High Performance Liquid Chromatography (UHPLC) (Bruker Daltonik, Bremen, Germany) equipped with a CTC-PAL-xt autosampler with cooled sample compartments (10 °C) and a column oven held at 40 °C. The UHPLC eluate was directed to a Bruker Evoq Elite triple quad-ropole MS equipped with a heated electrospray ionization source operated in positive ionization mode. Separation of 15 µL sample was obtained using a Phenomenex (Phenomenex, Torrance, CA, USA) Kinetex XB-C18 column (50 mm × 2.1 mm i.d., 1.7 µm particle size) equipped with a guard column. The analytes were separated using a solvent system consisting of water/acetonitrile (95:5, v/v) (eluent A) and water/acetonitrile (5:95, v/v) (eluent B); both acidified with 0.1% formic acid. The eluent flow rate was maintained at 0.4 mL/min with the following gradient elution profile: 0 min: 0% B; 5 min: 100% B; 6 min: 100% B, followed by three min equilibration at 0% B. Two ion transitions were monitored for all analytes and internal standard.
The mouse liver microsome assay was performed by transferring 25 µL of a 20 µM solution of the test compound (0.5% DMSO), dissolved in potassium phosphate monobasic buffer (pH 7.4) containing 3 mM MgCl2, to 9 wells in a microtiter plate. To each well, […] of a 0.5 mg/mL mouse liver (Sigma Aldrich) in buffer was added, and the microtiter plate were pre-incubated for 5 min at 37 °C in a plate shaker at 600 rpm. After pre-incubation, 50 µL 37 °C NADPH regenerating system, consisting of 2 mM NADP+, 10mM glucose-6-phosphate, and 2 U/mL glucose-6-phosphate dehydrogenase dissolved in buffer, was added to start the assay. In triplicates, immediately after adding the NADPH solution, 75 µL was transferred to an Eppendorf tube, containing […] ice-cold acetonitrile with 400 ng/mL internal standard (7). Similarly, samples were prepared after 30 min and 60 min incubation at 37 °C. The samples were vortexed for 30 seconds and centrifuged at 16,000 × g for 10 minutes before analyzing the supernatant. The individual analyte responses were normalized to the internal standard. Diazepam was used as positive control.
The mouse […] assay was performed by transferring 75 µL of a 10 µM solution of the test compound (0.5% DMSO), dissolved in PBS buffer (pH 7.4), to 9 wells in a microtiter plate. To each well, 75 µL mouse plasma, harvested from in-house mice into K2-EDTA tubes and centrifuged at 1,600 × g, was added. […]
(§2) The metabolic stabilities of JON-11 and the prodrugs 1a, 8-12, 19 and 20 were determined in vitro in rat plasma and rat liver microsomes. […] The corresponding loss of prodrug compounds and formation of parent drug JON-11 was determined by UHPLC-MS.

[2] = tested on: GHB binding sites i.e. CaMK2a; conditions: previously published; cited from earlier work
[3] = molecular target: T1, GHB high-affinity binding site/CaMK2a (Rattus norvegicus, UniProt P11275); test: Rat brain membrane [3H]NCS-382 binding assay; conditions: for Ki: 16 nM [3H]NCS-382, rat cortical synaptic membranes, pH 6.0, 0-4 °C
T1 construct: rat (Sprague-Dawley) cortical synaptic membranes (P2 synaptosomes) were prepared; from tissue; host or cells: rat (Sprague-Dawley) cortical synaptic membranes (P2 synaptosomes)
Method: According to previously published protocols, rat (Sprague-Dawley) cortical synaptic membranes (P2 synaptosomes) were prepared and stored at -20 °C until the day of assay (Wellendorph et al., 2005). Membranes were then washed three times with binding buffer (50 mM potassium phosphate buffer pH 6.0). The binding protocol was performed in 96-well microplates. In brief, compounds were incubated with 16 nM [^3H]NCS-382 radioligand and membranes for 60 min at 0-4 °C, filtered through GF/C filter plates (PerkinElmer) using a 96-well harvester (Packard), rapidly washed three times with ice-cold binding buffer, and filter plates dried. CPM values were determined using liquid scintillation counting in a TopCount NXT Microplate Scintillation & Luminescence Counter (PerkinElmer). Curves were generated using non-linear regression (GraphPad Prism 7, GraphPad Prism Software, San Diego, CA, USA).
JON-11, related analogues, and pro-JON-11(10) were tested in the [^3H]NCS-382 binding assay (Wellendorph et al., 2005).

[4] = type: in vitro ADME, mouse; conditions: rat liver microsomes as printed
Method: as §1, with “standard. […]” for “standard.”
as §2

[5] = Mouse plasma assay (metabolic stability); type: in vitro ADME; conditions: rat plasma as printed
Method: as §1, with “standard. […]” for “standard.”
as §2

in vivo = test: in vivo; parameters: species or system mice; conditions: C57BL/6JRj, mouse, ip, male mice, dose 10 mg/kg i.p., 30 min, read-out: B/P ratio
Method: To evaluate the ability of pro-JON-11 (10) and JON-11 to penetrate the blood-brain barrier, a brain-to-plasma distribution ratio (B/P ratio) was obtained. All subjects were male C57BL/6JRj mice (24-26 g, Janvier Labs, France) housed in groups of three-four with ad libitum access to food and water. The mice were maintained under diurnal conditions (12-h light/dark cycle with lights on at 7 AM) in a temperature (22±1 °C) and humidity-controlled room (50±10%). Ethical permission for the procedures used in this in vivo study was granted by the Danish Animal Experiments Inspectorate.
Compounds were dissolved in PEG-400 (Sigma) at 20% of the final required volume. The final volume was then made up by 10% (w/v) hydroxypropyl-beta-cyclodextrin (Sigma Aldrich) in sterile saline. The solution was sonicated for 5 min. The JON-11 solution was pH-adjusted to 7.4 with 0.2% 2M NaOH.
Both compounds were injected i.p. at a dose of 10 mg/kg (n=3 for each compound). […] After 30 min, the animals were sacrificed by decapitation, trunk blood was collected in EDTA-coated tubes and the brain was gently removed. Blood and tissues were temporarily stored on ice until plasma and brain homogenate preparation. Blood plasma was separated from cells by centrifugation for 10 min at 1,500 x g at 4 °C and plasma harvested. […]
Plasma and brain exposure of JON-11 and pro-JON-11 were evaluated in male mice. […]

LAT-1 [6] = molecular target: T2, LAT-1 (Homo sapiens, UniProt Q01650); test: LAT-1 [3H]leucine uptake in HEK293T cells; type: cell-based; conditions: HEK293T cells endogenously expressing LAT-1
T2 construct: endogenous in cells; host or cells: HEK293T
Source text: (§3) To test selected prodrugs for substrate activity at LAT-1, we characterised the uptake and efflux of [^3H]leucine in the presence of compounds. For this purpose we used HEK293T cells endogenously expressing a functionally competent LAT-1, and performed assays according to Chien et al., 2018 to measure A) uptake and B) relative exchange efflux rate (L-leucine as control).

LAT-1 [7] = molecular target: T2, LAT-1; test: LAT-1 relative exchange efflux of [3H]leucine in HEK293T cells; type: cell-based; conditions: HEK293T cells endogenously expressing LAT-1
Source text: as §3

T1 sequence (P11275 whole entry): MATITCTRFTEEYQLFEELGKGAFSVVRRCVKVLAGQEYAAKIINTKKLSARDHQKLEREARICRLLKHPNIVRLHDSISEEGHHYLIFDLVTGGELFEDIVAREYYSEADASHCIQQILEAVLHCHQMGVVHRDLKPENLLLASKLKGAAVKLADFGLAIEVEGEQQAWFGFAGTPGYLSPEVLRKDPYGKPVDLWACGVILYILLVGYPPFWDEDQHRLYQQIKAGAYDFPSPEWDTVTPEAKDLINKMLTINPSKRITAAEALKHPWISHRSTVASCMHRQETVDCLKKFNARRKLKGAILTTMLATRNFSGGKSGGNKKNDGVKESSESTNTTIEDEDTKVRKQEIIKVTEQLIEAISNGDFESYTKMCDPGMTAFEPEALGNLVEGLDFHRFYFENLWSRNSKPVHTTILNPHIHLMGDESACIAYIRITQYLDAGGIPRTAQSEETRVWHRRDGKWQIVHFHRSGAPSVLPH
T2 sequence (Q01650 whole entry): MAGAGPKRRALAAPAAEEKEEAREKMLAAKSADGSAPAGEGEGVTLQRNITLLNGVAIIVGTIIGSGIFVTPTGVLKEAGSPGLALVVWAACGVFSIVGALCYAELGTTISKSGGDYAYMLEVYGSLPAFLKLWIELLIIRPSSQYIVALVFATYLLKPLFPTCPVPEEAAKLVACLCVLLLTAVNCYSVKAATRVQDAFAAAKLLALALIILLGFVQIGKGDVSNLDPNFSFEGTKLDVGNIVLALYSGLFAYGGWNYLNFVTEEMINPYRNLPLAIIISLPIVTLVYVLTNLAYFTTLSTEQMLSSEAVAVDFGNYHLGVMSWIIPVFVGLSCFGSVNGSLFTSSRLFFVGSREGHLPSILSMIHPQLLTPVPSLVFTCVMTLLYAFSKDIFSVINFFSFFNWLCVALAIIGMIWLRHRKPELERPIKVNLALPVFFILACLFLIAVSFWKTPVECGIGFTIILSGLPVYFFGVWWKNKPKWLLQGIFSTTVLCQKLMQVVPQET
T2 sequence (P08195 102-630 partner): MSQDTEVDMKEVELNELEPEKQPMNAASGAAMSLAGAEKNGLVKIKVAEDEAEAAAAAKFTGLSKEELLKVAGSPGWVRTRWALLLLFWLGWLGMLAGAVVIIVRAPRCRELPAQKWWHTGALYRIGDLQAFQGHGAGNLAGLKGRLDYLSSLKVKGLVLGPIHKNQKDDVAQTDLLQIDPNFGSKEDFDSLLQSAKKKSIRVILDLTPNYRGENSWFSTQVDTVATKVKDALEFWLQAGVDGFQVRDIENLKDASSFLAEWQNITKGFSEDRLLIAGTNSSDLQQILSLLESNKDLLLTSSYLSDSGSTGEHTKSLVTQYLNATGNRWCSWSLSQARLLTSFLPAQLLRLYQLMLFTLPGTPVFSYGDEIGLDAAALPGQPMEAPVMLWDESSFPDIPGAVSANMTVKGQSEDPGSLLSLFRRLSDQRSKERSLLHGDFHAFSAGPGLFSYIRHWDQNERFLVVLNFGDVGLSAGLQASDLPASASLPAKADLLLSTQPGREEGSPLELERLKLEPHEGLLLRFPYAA

SMILES: CCOC(=O)Cc1cn2nc(-c3ccc(Cl)cc3)ccc2n1 [1a, ethyl 2-(6-(4-chlorophenyl)imidazo[1,2-b]pyridazin-2-yl)acetate]
- chemical/metabolic stability of prodrug [1]: highly chemical/metabolic unstable

SMILES: O=C(O)CCC(O)c1ccc(OCc2ccccc2)cc1 (stereo not shown) [BnOPh-GHB]
- affinity relative to GHB [2]: 39 times

SMILES: O=C(O)C1=CC(O)CC1 (stereo not shown) [HOCPCA, 3-hydroxycyclopent-1-enecarboxylic acid]
- affinity relative to GHB [2]: 27 times

SMILES: O=C(O)Cc1cn2nc(-c3cccc(Cl)c3)ccc2n1 [compound 2, 2-(6-(3-Chlorophenyl)imidazo[1,2-b]pyridazin-2-yl)acetic acid]
- Ki [3]: 230 nM

SMILES: O=C(O)Cc1cn2nc(-c3cccc(OCc4ccccc4)c3)ccc2n1 [compound 3]
- Ki [3]: 510 nM

SMILES: O=C(O)Cc1cn2nc(-c3ccc(OCc4ccccc4)cc3)ccc2n1 [compound 4, 2-(6-(4-(benzyloxy)phenyl)imidazo[1,2-b]pyridazin-2-yl)acetic acid]
- Ki [3]: 2200 nM

SMILES: COc1cccc(-c2ccc3nc(CC(=O)O)cn3n2)c1 [compound 5, 2-(6-(3-Methoxyphenyl)imidazo[1,2-b]pyridazin-2-yl)acetic acid]
- Ki [3]: 440 nM

SMILES: COc1ccc(-c2ccc3nc(CC(=O)O)cn3n2)cc1 [compound 6, 2-(6-(4-Methoxyphenyl)imidazo[1,2-b]pyridazin-2-yl)acetic acid]
- Ki [3]: 830 nM

SMILES: O=C(O)Cc1cn2nc(-c3ccc(Cl)c(Cl)c3)ccc2n1 [compound 7, 2-(6-(3,4-Dichlorophenyl)imidazo[1,2-b]pyridazin-2-yl)acetic acid]
- Ki [3]: 190 nM

SMILES: CC(=O)OCOC(=O)Cc1cn2nc(-c3ccc(Cl)cc3)ccc2n1 [compound 8, Acetoxymethyl 2-(6-(4-chlorophenyl)imidazo[1,2-b]pyridazin-2-yl)acetate]
- chemical/metabolic stability of prodrug [1]: highly chemical/metabolic unstable

SMILES: CC(C)(C)C(=O)OCOC(=O)Cc1cn2nc(-c3ccc(Cl)cc3)ccc2n1 [compound 9, (2-(6-(4-Chlorophenyl)imidazo[1,2-b]pyridazin-2-yl)acetoxy)methyl pivalate]
- chemical/metabolic stability of prodrug [1]: highly chemical/metabolic unstable

SMILES: CC(C)(C)OC(=O)Cc1cn2nc(-c3ccc(Cl)cc3)ccc2n1 [compound 10, tert.Butyl 2-(6-(4-chlorophenyl)imidazo[1,2-b]pyridazin-2-yl)acetate]
- displacement of radioligand binding ([3]; [3H]NCS-382, concentrations up to 10 µM): failed to displace radioligand binding
- stability in liver microsomes [4]: high stability
- half-life at 5 µM ([5]; pH 7.4): ~1 h
- stability in plasma [5]: fair stability
- Kp at 30 min (in vivo): 2.24

SMILES: N[C@@H](Cc1cccc(NC(=O)Cc2cn3nc(-c4ccc(Cl)cc4)ccc3n2)c1)C(=O)O [compound 11, (S)-2-amino-3-(3-(2-(6-(4-chlorophenyl)imidazo[1,2-b]pyridazin-2-yl)acetamido)phenyl)propanoic acid]
- competition with [3H]leucine uptake at LAT-1 (LAT-1 [6]): LAT1 inhibitor; also recorded: competes
- exchange for [3H]leucine (relative exchange efflux) (LAT-1 [7]): cannot be exchanged

SMILES: N[C@@H](Cc1ccc(NC(=O)Cc2cn3nc(-c4ccc(Cl)cc4)ccc3n2)cc1)C(=O)O [compound 12, (S)-2-amino-3-(4-(2-(6-(4-chlorophenyl)imidazo[1,2-b]pyridazin-2-yl)acetamido)phenyl)propanoic acid]
- competition with [3H]leucine uptake at LAT-1 (LAT-1 [6]): not

From patent EP3952873B1 (priority 2019, dated 2020)
